Molecular target: T1, CCR4 receptor (Homo sapiens, UniProt P51679)
T1 construct: beta-galactosidase enzyme-fragment tag; From own knowledge, PathHunter uses a ProLink/enzyme-donor fragment, usually at the receptor's C-terminus; expressed in transfected cells; host or cells: CHO-K1
T1 sequence (P51679 1-360): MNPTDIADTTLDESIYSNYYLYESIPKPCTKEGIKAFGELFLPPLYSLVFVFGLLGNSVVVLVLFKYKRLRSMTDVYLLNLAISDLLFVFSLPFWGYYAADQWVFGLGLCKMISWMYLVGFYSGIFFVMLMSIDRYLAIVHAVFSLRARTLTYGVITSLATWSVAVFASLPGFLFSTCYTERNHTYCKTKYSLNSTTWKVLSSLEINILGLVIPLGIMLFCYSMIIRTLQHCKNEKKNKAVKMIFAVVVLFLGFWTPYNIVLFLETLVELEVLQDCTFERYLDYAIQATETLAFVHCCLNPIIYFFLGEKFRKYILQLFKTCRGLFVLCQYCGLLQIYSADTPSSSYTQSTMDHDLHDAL
Test: CCR4 antagonist activity in Beta-Arrestin Cellular Assay (PathHunter, CCL22 challenge)
Type: cell-based
Settings: CHO-K1 cells expressing the CCR4 receptor; CCL22 at EC80 (15 nM), 90 minutes; 30 min pre-incubation; read-out: Potency (CCR4 antagonist IC50 in the β-arrestin assay)
Method: Example 39. Determination of CCR4 antagonist activity in Beta-Arrestin Cellular Assay
CCR4 Antagonistic Activity was assessed in Beta-Arrestin Cellular Assay. Compounds were assessed in CHO-K1 cells expressing the CCR4 receptor modified to enable β-glactosidase detection of β-arrestin agonist activity stimulated by CCL22 in a chemiluminescence assay. Cells were seeded in a total volume of 20 μL into white walled, 384-well microplates and incubated at 37° C. prior to testing. Cells were pre-incubated with test compound for 30 min at 37° C. followed by agonist challenge with CCL22 at the EC80 concentration (15 nM) for 90 minutes. Assay signal was generated through a single addition of 12.5 or 15 μL ([…]) of PathHunter Detection reagent cocktail, followed by a one-hour incubation at room temperature. Microplates were read following signal generation with a PerkinElmer Envision™ instrument for chemiluminescent signal detection. Antagonist activity was analyzed using CBIS data analysis suite (ChemInnovation, CA). Antagonist activity was characterized as percentage inhibition calculated using the following formula:
An IC50 of >500 nM is designated as Potency C, an IC50 of between 500 nM and 100 nM is designated as Potency B and an IC50 of <100 nM is designated as Potency A.

Structure (SMILES) | IC50 [nM]
C[C@@H](Nc1cc(N2CCC([C@H]3CCCN(CCS(N)(=O)=O)C3)CC2)nc2ncnn12)c1ccc(Cl)cc1Cl [Example 19, 2-((R)-1′-(7-(((R)-1-(2,4-dichlorophenyl)ethyl)amino)-[1,2,4]triazolo[1,5-a]pyrimidin-5-yl)-[3,4′-bipiperidin]-1-yl)ethane-1-sulfonamide] | < 100
CNS(=O)(=O)CCCN1CCC[C@H](C2CCN(c3cc(N[C@H](C)c4ccc(Cl)cc4Cl)n4ncnc4n3)CC2)C1 [Example 20, 3-((R)-1′-(7-(((R)-1-(2,4-dichlorophenyl)ethyl)amino)-[1,2,4]triazolo[1,5-a]pyrimidin-5-yl)-[3,4′-bipiperidin]-1-yl)-N-methylpropane-1-sulfonamide] | < 100
C[C@@H](Nc1cc(N2CCC([C@H]3CCCN(CCC(=O)O)C3)CC2)nc2ncnn12)c1ccc(Cl)cc1Cl [Example 14, 3-((R)-1′-(7-(((R)-1-(2,4-dichlorophenyl)ethyl)amino)-[1,2,4]triazolo[1,5-a]pyrimidin-5-yl)-[3,4′-bipiperidin]-1-yl)propanoic acid] | < 100
C[C@@H](Nc1cc(N2CCC([C@H]3CCCN(CCO)C3)CC2)nc2ncnn12)c1ccc(Cl)cc1Cl [Example 8, 2-((R)-1′-(7-(((R)-1-(2,4-dichlorophenyl)ethyl)amino)-[1,2,4]triazolo[1,5-a]pyrimidin-5-yl)-[3,4′-bipiperidin]-1-yl)ethan-1-ol] | < 100
C[C@@H](Nc1cc(N2CCC([C@H]3CCCN(Cc4nc[nH]n4)C3)CC2)nc2ncnn12)c1ccc(Cl)cc1Cl [Example 5, 5-((R)-1-((1H-1,2,4-triazol-3-yl)methyl)-[3,4′-bipiperidin]-1′-yl)-N-((R)-1-(2,4-dichlorophenyl)ethyl)-[1,2,4]triazolo[1,5-a]pyrimidin-7-amine] | < 100

Further lines, results first:

IC50 [nM] | Structure (SMILES)
< 100 | C[C@@H](Nc1cc(N2CCC([C@H]3CCCN([C@H]4C[C@](C)(C(=O)O)C4)C3)CC2)nc2ccnn12)c1ccc(Cl)cc1Cl [Example 24, (1R,3r)-3-((R)-1′-(7-(((R)-1-(2,4-dichlorophenyl)ethyl)amino)pyrazolo[1,5-a]pyrimidin-5-yl)-[3,4′-bipiperidin]-1-yl)-1-methylcyclobutane-1-carboxylic acid]
< 100 | C[C@@H](Nc1cc(N2CCC([C@H]3CCCN([C@H]4C[C@](C)(C(=O)O)C4)C3)CC2)nc2ncnn12)c1ccc(F)cc1Cl [Example 26, (1R,3r)-3-((R)-1′-(7-(((R)-1-(2-chloro-4-fluorophenyl)ethyl)amino)-[1,2,4]triazolo[1,5-a]pyrimidin-5-yl)-[3,4′-bipiperidin]-1-yl)-1-methylcyclobutane-1-carboxylic acid]
100 to 500 | Cc1cc(F)ccc1[C@@H](C)Nc1cc(N2CCC([C@H]3CCCN([C@H]4C[C@](C)(C(=O)O)C4)C3)CC2)nc2ncnn12 [Example 28, (1R,3r)-3-((R)-1′-(7-(((R)-1-(4-fluoro-2-methylphenyl)ethyl)amino)-[1,2,4]triazolo[1,5-a]pyrimidin-5-yl)-[3,4′-bipiperidin]-1-yl)-1-methylcyclobutane-1-carboxylic acid]
< 100 | Cc1ccc([C@@H](C)Nc2cc(N3CCC([C@H]4CCCN([C@H]5C[C@](C)(C(=O)O)C5)C4)CC3)nc3ccnn23)c(Cl)c1 [Example 31, (1R,3r)-3-((R)-1′-(7-(((R)-1-(2-chloro-4-methylphenyl)ethyl)amino)pyrazolo[1,5-a]pyrimidin-5-yl)-[3,4′-bipiperidin]-1-yl)-1-methylcyclobutane-1-carboxylic acid]
< 100 | C[C@@H](Nc1cc(N2CCC(C3CCCN(CCO)C3)C2)nc2ncnn12)c1ccc(Cl)cc1Cl (single isomer, unassigned) [Example 23b]

From patent US20250122208A1, “CHEMOKINE RECEPTOR MODULATORS AND USES THEREOF” (RAPT THERAPEUTICS, INC., priority 2023, published 2025)
